This is an account of results in ChEMBL document CHEMBL1130184, “Effect of a chemical modification on the hydrated adenosine intermediate produced by adenosine deaminase and a model reaction for a potential mechanism of action of 5-aminoimidazole ribonucleotide carboxylase” (J Med Chem, 1997).

For assay [1], the target named is T1, Adenosine deaminase (Bos taurus) (UniProt P56658).
T1 sequence (whole entry): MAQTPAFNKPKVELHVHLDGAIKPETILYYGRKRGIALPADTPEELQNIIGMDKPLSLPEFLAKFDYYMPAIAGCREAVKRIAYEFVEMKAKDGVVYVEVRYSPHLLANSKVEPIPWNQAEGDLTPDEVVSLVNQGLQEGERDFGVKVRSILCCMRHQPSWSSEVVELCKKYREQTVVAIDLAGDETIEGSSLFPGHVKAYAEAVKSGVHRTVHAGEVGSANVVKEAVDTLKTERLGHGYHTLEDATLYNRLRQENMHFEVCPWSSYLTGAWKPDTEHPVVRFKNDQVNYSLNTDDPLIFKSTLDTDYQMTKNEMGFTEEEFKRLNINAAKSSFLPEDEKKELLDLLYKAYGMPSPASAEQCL
The assay is described as follows: Inhibitory activity of compound at 25 uM against adenosine deaminase.

The target of assay [2] is T2, Adenosine deaminase (Bos taurus, UniProt P56658).
T2 sequence (P56658 whole entry): T1 sequence (whole entry)
Kind of assay: Apparent binding constant against adenosine deaminase.

The target of assay [3] is T2, Adenosine deaminase. Kind of assay: Inhibitory activity against adenosine deaminase.

Each structure is given as a SMILES string.

What is called inhibition is the drop in the measured response relative to a control, in per cent. The low end stands for a response near the control, the high end for a response far below the control. `Nc1ncnc2c1ncn2[C@@H]1O[C@H](CO)[C@@H](O)[C@H]1O` yielded an inhibition in assay [1] of 15%. Turning to `O=CNc1cn([C@@H]2O[C@H](CO)[C@@H](O)[C@H]2O)cn1`, the Ki at Adenosine deaminase [2] turned out to be 40 µM. `Nc1ccnc2c1ncn2[C@@H]1O[C@H](CO)[C@@H](O)[C@H]1O` registered a Ki at Adenosine deaminase [3] of 0.18 µM.
